According to patent US20160067161A1, “COSMETIC OR PHARMACEUTICAL COMPOSITION FOR RESISTING SKIN AGEING THROUGH AN ANTI-INFLAMMATORY ACTION” (GIULIANI S.P.A., priority 2013, published 2016):

What was measured:
NCTC 2544 cells = assay: ROS antioxidant test (DCFH-DA spectrofluorometry) on NCTC 2544 cells; type: cell-based, human; details: 500 μM, 1.5 hours (FIG. 3); for decrease in intracellular concentration of ROS produced compared with H2O2 control: test compound at 500 nM, 1 μM, 1 mM, α-tocopherol 250 μg/ml (580 μM)
Description: Samples of a compound of the invention, N^1-methylspermidine trihydrochloride salt, i.e. N-(3-aminopropyl)-N^1-methyl-1,4-butanediamine 3HCl, were subjected to the following antioxidant test to reactive oxygen species (ROS).
The production of ROS was monitored spectrofluorometrically using 2′,7′-dichlorofluorescein diacetate (DCFH-DA), as described by Tobi et al. (Tobi S E, Paul N, T McMillan J. J Photochem Photobiol, B 2000: 57: 102-112).
The NCTC 2544 cells (about 80% confluence) were detached with trypsin/EDTA and seeded at a density of 5×10^4 cells per well in 96-well plates. Subsequently, the cells were treated with samples of N^1-methylspermidine, at the following concentrations: 500 nM, 1 μm and 500 μm, 1 mM (final concentration in the culture medium).
α-tocopherol (250 μg/ml, 580 μm) was used as a comparison of the antioxidant activity.
The plates were incubated at 37° C. in 5% CO2 for 1.5 hours. Cells cultured on basal medium with 2.5% FBS were used as a control.
The results are shown in the graph of FIG. 3, wherein N^1-methylspermidine trichydrochloride salt is for brevity indicated as ‘methylspermidine’.

TNF-α = assay: Anti-inflammatory test: TNF-α gene expression by qRT-PCR in LPS-treated NCTC2544 keratinocytes; type: cell-based, human; details: for TNF-α expression: NCTC2544 cells + LPS 5 μg/ml, 16 hours of treatment
Method: An immortalized line of human keratinocytes NCTC2544 is used (Perry, V. P., Sanford, K. K., Evans, V. J., Hyatt, G. W., Earle, W. R., 1957: Establishment of clones of epithelial cells from human skin. J Natl Cancer Inst. 18 (5): 709-717) cultured in sterile flasks ([…]), incubated at 37° C. in a humid atmosphere at 5% CO2 in MEM (Minimum Essential Medium) added with bovine fetal serum (FBS), 2 mm L-glutamine, 1% non-essential amino acids, in the presence of 1% penicillin and streptomycin.
A 1:3 split is done every 2 days upon achieving the monolayer by washing with 1× PBS (phosphate buffer without Ca^2+ and Mg^2+) and detachment of cells with a trypsin-EDTA solution at 37° C. for 2 minutes.
Negative control: human keratinocytes NCTC2544 cultured in EMEM (EBSS) at 2.5% FBS, supplemented with 1% L-glutamine 2 mM, 1% solution of amino acids and 1% mixture of penicillin (10,000 U/ml)/streptomycin (10,000 Ug/ml) at 37° C., 5% CO2. Positive control: human keratinocytes NCTC2544 treated with lipopolysaccharide (LPS, 5 μg/ml) in EMEM (EBSS) at 2.5% FBS, supplemented with 1% L-glutamine 2 mM, 1% solution of amino acids and 1% mixture of penicillin (10,000 U/ml)/streptomycin (10,000 Ug/ml) at 37° C., 5% CO2.
The gene expression of TNF-α on NCTC2544 cells treated with the samples was evaluated by qRT-PCR.
The analysis of gene expression involves four steps:
1. Treatment of cells with the samples for 16 and 24 hours;
3. Retrotranscription in cDNA;
In the experimental conditions, in relation with the results obtained in a previous MTT test, samples of spermidine and N^1-methyl-spermidine were tested at the following concentrations: 1 μM, 500 nM and 1 mM (final concentration in the medium). Said positive and negative controls were also tested.
When the human keratinocyte cells NCTC 2544 have reached about 80% confluence, they are detached with trypsin/EDTA and seeded at a density of 1×10^6 cells/ml in 12-well plates and incubated at 37° C., 5% CO2 (24 h).
The above samples of spermidine and N^1-methyl-spermidine were dissolved in EMEM, supplemented with 2.5% FCS, 1% 2 mM L-glutamine, 1% NEAA solution and 1% penicillin (10,000 U/ml)/streptomycin ([…]).
The controls, containing only culture medium (negative control) and culture medium plus LPS ([…]) (positive control), were included in each plate. The cells were exposed to the action of the samples of spermidine and N^1-methyl-spermidine at the above concentrations of 1 μM, 500 nM and 1 mM: a total of six samples.
LPS at a concentration of 5 μg/ml was added to each well (except in the negative control). Each sample was tested in replicate.
With reference to the graphs in FIGS. 4 and 5, samples of further compounds of the invention as specified below were subjected to anti-inflammatory test on an immortalized line of human keratinocytes NCTC2544 substantially as described above, to the general part whereof reference shall be made.
The controls containing only culture medium (negative control) and culture medium plus LPS (5 μg/ml) (positive control), were included in each plate.
The cells were exposed to the action of samples of the compounds N^1-ethylspermidine, N^1-propylspermidine, N^1-isobutylspermidine at the concentrations of 1 nM and 1 μM.
The gene expression data were obtained by RT-PCR.

Structure (SMILES): Cc1c(C)c2c(c(C)c1O)CC[C@@](C)(CCC[C@H](C)CCC[C@H](C)CCCC(C)C)O2 [α-tocopherol, reference compound]
- decrease in intracellular concentration of ROS produced compared with H2O2 control (NCTC 2544 cells): decrease substantially comparable

Structure (SMILES): CN(CCCN)CCCCN.Cl.Cl.Cl [N-(3-aminopropyl)-N^1-methyl-1,4-butanediamine 3HCl]
- antioxidant activity compared with α-tocopherol (580 μM) (NCTC 2544 cells): higher antioxidant activity
- decrease in intracellular concentration of ROS produced compared with H2O2 control (NCTC 2544 cells): decrease substantially comparable

Structure (SMILES): CN(CCCN)CCCCN [N^1-methylspermidine, N-(3-aminopropyl)-N^1-methyl-1,4-butanediamine]
- anti-inflammatory effects after 24 hours compared with 16 hours (TNF-α; 24 hours of treatment (FIG. 2)): remain almost unchanged
- anti-inflammatory effect compared with spermidine (TNF-α; 24 hours of treatment, 500 nM (FIG. 2)): significantly higher anti-inflammatory effect
- TNF-α expression (TNF-α; 1 nM (FIG. 1)): 7.94%
- TNF-α expression (TNF-α; 500 nM (FIG. 1)): 1.52%
- anti-inflammatory effect (TNF-α gene expression) (TNF-α; all concentrations examined, 16 and 24 hours): anti-inflammatory effect

Structure (SMILES): NCCCCNCCCN [spermidine, reference compound]
- TNF-α expression (TNF-α; 1 nM (FIG. 1)): 13.99%
